Laboratory results as given in publication PMC7582727, “Functional Impact of BeKm-1, a High-Affinity hERG Blocker, on Cardiomyocytes Derived from Human-Induced Pluripotent Stem Cells” (International Journal of Molecular Sciences, 2020).
Positions of bridges follow the written chain, without caps; N, C: chain ends. Residues, ends and D or L forms follow the SMILES beside them.

Experiments:
hiPS-CMs monolayers = test: Contraction (impedance) of hiPS-CM monolayers (CardioExcyte 96); format: cell-based, human
Description: The results described above on the excitability alterations of hiPS-CMs indicate that BeKm-1 should also impair excitation–contraction coupling (ECC) in these cells. In spontaneously beating cardiomyocytes, the toxin should impact the contractility in a coherent manner with spontaneous APs and CaT. We investigated the contractions using the CardioExcyte 96 system. […] Coherent with the proarrhythmic properties of 2 nM of BeKm-1, both the mean SD1, the standard deviation of instantaneous contraction-to-contraction interval variability, and SD2, the continuous long-term interval variability, increased by 2- and 1.7-fold, respectively (Figure S5I).
hiPS-CMs: All experiments were performed on the human-induced pluripotent stem cell (hiPSC) clone C2a that has been previously characterized, including cardiac differentiation and electrophysiology data. Cells were expanded on stem cell-qualified matrigel-coated plates (0.05 mg/mL; BD Bioscience, Le Pont de Claix, France) and cultured in StemMACS iPS-BREW XF medium (Miltenyi Biotec, Paris, France). Cells were passaged every […] using Gentle Cell Dissociation Buffer (StemCell Technologies, Grenoble, France). Prior to differentiation, cells were cultured as a monolayer in StemMACS iPS-brew supplemented with 1 × Y-27632 Rho-associated, coiled-coil containing protein kinase (ROCK) inhibitor (StemCell Technologies, Grenoble, France). When hiPSCs reached proper confluence, they were differentiated into cardiomyocytes using previously described « Matrix sandwich » protocol. At day 20 ± 1 of differentiation, beating cardiomyocytes were manually dissected and isolated from non-beating cells. Briefly, cardiomyocytes were washed with phosphate-buffered saline (PBS) and treated with TrypLE Express (10x) (Thermo Fisher Scientific, Illkirch-Graffenstaden, France) for 5 min at 37 °C. The enzyme was inactivated by adding RPMI1640 medium containing 20% (vol/vol) KnockOut Serum Replacement (KSR) (Thermo Fisher Scientific, Illkirch-Graffenstaden, France). The supernatant was removed, and cells were suspended in RPMI1640 medium containing 20% (vol/vol) KSR and ROCK inhibitor. Then, the cells were plated on specific supports suitable for functional assessments.
The beating properties and the electrical field potentials of hiPS-CMs were evaluated with a CardioExcyte96 system. After dissociation, hiPS-CMs were seeded on NSP-96 Sensor Plates (Nanion Technologies, Munich, Germany) at a density of 40,000 viable cells per well. Sensor plates were previously coated with 10 µg/mL fibronectin for 1 h at 37 °C. The cells were maintained at 37 °C, and the medium was replaced every 2 days for 1 week. On the day of beating assessment, the whole medium was replaced 4 h prior to experiments, and cells were incubated at 37 °C onto the CardioExcyte96 system. Meanwhile, cells were monitored to ensure the full stabilization of beating parameters until BeKm-1 was tested at various concentrations ([…]). Tfall and Trise were determined as the time between 10% and 90% of contraction or relaxation, respectively. Pulse width (PWx) was determined as the time corresponding to the width of the signal at 90% of relaxation. Electric field potentials (EFPs) were recorded using CardioExcyte96 system. For both contraction and EFPs, 10 sequences of 30 s of acquisition were analyzed before and after BeKm-1 addition. The CardioExcyte system is best to analyze the kinetic parameters of the contractile properties of hiPS-CMs but has intrinsic limitations to assess properly variations in contractile force.

hERG channel = settings: cited from earlier work
Excerpt: The Kv11.1 channel (hERG) and the corresponding IKr current play a major role in cardiac repolarization (Figure S1). […] Long QT syndrome is one of the cardiac diseases that has been studied in the greatest detail. Type II long QT syndrome is associated with a decrease in IKr currents, as opposed to short QT syndrome, which is associated with increased IKr currents. Type II long QT syndrome is called “inherited” when a mutation in the gene encoding hERG, KCNH2, gives rise to a loss of ... || In this report, we focused on BeKm-1, a toxin that was originally isolated from the venom of Buthus eupeus scorpion. […] According to its 3D structure, the peptide adopts an α-helix and three β-strands organized in a twisted antiparallel β-sheet. By homology with other toxins, BeKm-1 is a member of the γ-KTx subfamily of scorpion toxins.

[1] = 2 nM vs vehicle, n = 8 monolayers

## CC[C@H](C)[C@H](NC(=O)[C@H](CC(=O)O)NC(=O)[C@@H](NC(=O)[C@@H]1CCCN1C(=O)[C@@H](N)CCCNC(=N)N)[C@@H](C)O)C(=O)N[C@@H](CCCCN)C(=O)N[C@H]1CSSC[C@@H]2NC(=O)[C@H](CCCNC(=N)N)NC(=O)CNC(=O)[C@H](CC(N)=O)NC(=O)[C@H]([C@@H](C)O)NC(=O)[C@H](CCCCN)NC(=O)CNC(=O)[C@H](Cc3ccccc3)NC(=O)[C@H](CCCNC(=N)N)NC(=O)[C@H](CO)NC(=O)[C@H](CCCCN)NC(=O)[C@@H]3CSSC[C@@H](C(=O)N[C@@H](Cc4ccccc4)C(=O)O)NC(=O)[C@H](CC(=O)O)NC(=O)[C@H](CSSC[C@H](NC(=O)[C@H](CCC(N)=O)NC(=O)[C@H](Cc4ccc(O)cc4)NC(=O)[C@H](CO)NC(=O)[C@H](CCC(=O)O)NC(=O)[C@H](CO)NC1=O)C(=O)N[C@@H](Cc1ccccc1)C(=O)N1CCC[C@H]1C(=O)N[C@@H](C(C)C)C(=O)N3)NC(=O)[C@H](Cc1ccccc1)NC(=O)CNC(=O)[C@H](CC(N)=O)NC(=O)[C@H](C(C)C)NC2=O [BeKm-1] (H-RPTDIKCSESYQCFPVCKSRFGKTNGRCVNGFCDCF-OH; disulfide 7-28, 13-33, 17-35 (inferred); N-terminus and C-terminus assumed)
hiPS-CMs monolayers; 2 nM
  contraction amplitude: not significantly different from the control
  pulse width PW95: significant alteration
  pulse widths PW30, PW70 and PW90: none of the pulse widths (PW) PW30, PW70, and PW90 parameters were significantly altered
hiPS-CMs monolayers; 2 nM vs vehicle
  interbeat interval increase: 16.7%
  slowing of relaxation phase: 19.8%
  slowing of rising phase of contraction: 1.29 -fold
hiPS-CMs monolayers; [1]
  SD1 increase (instantaneous contraction-to-contraction interval variability): 2 -fold
  SD2 increase (continuous long-term interval variability): 1.7 -fold
hiPS-CMs monolayers; 2 nM, 37 °C, vehicle 2.03 ± 0.1 s, n = 8, mean ± SEM
  interbeat interval: 2.37 ± 0.2 s
hiPS-CMs monolayers; 2 nM, 37 °C, vehicle 203.5 ± 11.3 ms, n = 8, mean ± SEM
  duration of rising phase of contraction (Trise): 262.6 ± 16.9 ms
hiPS-CMs monolayers; 2 nM, 37 °C, vehicle 719.2 ± 45.8 ms, n = 8, mean ± SEM
  duration of relaxation phase (Tfall): 862.1 ± 82.0 ms
hiPS-CMs monolayers; 2 nM, Poincaré plot
  interbeat interval and its variability: significantly increased
hERG channel; in cardiomyocytes, no ref at the statement
  selectivity for hERG: highly selective for the hERG channel in cardiomyocytes
hERG channel; read-out: IC50, hERG (reported), ref [1],[2],[3],[4]
  IC50: 3.3 to 15.3 nM
hERG channel; ref [1]
  other targets: no other targets have been reported
hERG channel; ref [4]
  channel state blocked: blocks the closed state of the channel
hERG channel; ref [9]
  binding site (face of channel): preferentially binds the hERG outer mouth
